The nature of series [1]: Fluorescence excitation and emission spectra (Perkin-Elmer LS-5B Luminescence Spectrometer). The format is physicochemical. As to conditions: 10 micromolar solution. The protocol: Excitation and emission spectra of a 10 micromolar solution of compounds IIa and IIb were determined using a Perkin-Elmer LS-5B Luminescence Spectrometer.
In the next series the test system is mouse B16 melanoma. Nature of the series: Growth inhibition of tumor cells in culture, Coulter Counter cell count after 5 days. The format is cell-based. As to conditions: 120 h, read-out: IC50 of fused ring triazole (concentration inhibiting growth of cell line by 50%). The protocol: (§1) Experiments were performed in accordance with the procedure described by Yurkow and Laskin (Cancer Chemother. Pharmacol. 1991 27:315-319). In these experiments, tumor cells were maintained in culture in growth medium consisting of Dulbecco's modified Eagle's medium (DMEM) supplemented with 10% fetal bovine. Tumor cells were plated at low density (5000 cells/well) in 6-well tissue culture dishes and allowed to adhere overnight. The medium was then replaced with phenol red-free DMEM supplemented with increasing concentrations of the compounds, with zero concentration of compound serving as the control. Six concentrations and a control were used for each inhibitor, and each concentration was tested in triplicate. After 5 days, cells were removed from the dishes and enumerated using a Coulter Counter (Coulter Electronics, Inc.). The controls and treated samples at each concentration were averaged. Data are presented as the percentage of control growth at each concentration of the compound, plus and minus the standard error. The IC50 for growth inhibition was the concentration of each compound that inhibited growth by 50%. These are depicted in Table 1.

For series [2], the system named is mouse PAM 212 keratinocytes. Described as above. It is filed as cell-based. As to conditions: PAM212, 120 h, read-out: IC50 of fused ring triazole (concentration inhibiting growth of cell line by 50%). The procedure:
as §1

Series [3] concerns human HeLa cervical carcinoma. Described as above. The format is cell-based. As to conditions: 120 h, read-out: IC50 of fused ring triazole (concentration inhibiting growth of cell line by 50%). The protocol: as §1
The next series relates to human CX-1 colon cells. The series is described as above. It is filed as cell-based. As to conditions: 120 h, read-out: IC50 of fused ring triazole (concentration inhibiting growth of cell line by 50%). The protocol:
as §1

Compound `C1=Nn2c(nnc2-c2ccncc2)S/C1=C\c1ccccc1` [Compound IIa, 3-(4-pyridyl)-7-(phenylmethylene)-s-triazolo[3,4-b] [1,3,4]-thiadiazine] had an Emission peak in series [1] of 358 nm. For the same compound, the IC50 in the series with mouse B16 melanoma turned out to be 9 µM; in series [2] it was 10 µM; in series [3], 4 µM; with human CX-1 colon cells, 17 µM.
As to `C1=Nn2c(nnc2-c2cccs2)S/C1=C\c1ccccc1` [Compound IId, 3-(2-thienyl)-7-(phenylmethylene)-s-triazolo[3,4-b] [1,3,4]-thiadiazine], the IC50 worked out at 23 µM in the series with mouse B16 melanoma, 18 µM in series [2], 28 µM in series [3] and 20 µM in the series with human CX-1 colon cells.
Compound `C1=Nn2c(nnc2-c2ccccn2)S/C1=C\c1ccccc1` [Compound IIb, 3-(2-pyridyl)-7-(phenylmethylene)-s-triazolo[3,4-b] [1,3,4]-thiadiazine] had an Emission peak in series [1] of 320 nm. The compound further gave an Excitation peaks in series [1] of 249 nm. The IC50 turned out to be 15 µM in the series on mouse B16 melanoma, 18 µM in series [2], 9 µM in series [3] and 30 µM in the series on human CX-1 colon cells.

(Values after US20060270664A1, “Fluorescent fused-ring triazoles that inhibit cell proliferation and uses thereof” (priority 2004, published 2006).)
